From patent US20190030049A1, “Celocoxib Binding Antibodies and Uses Thereof” (Marina Biotech, Inc., priority 2016, published 2019) come the findings set out here.

The data set can be described thus: clinical. The note with it: human, plasma.

A word on the AUC: it is concentration integrated over time. A low value points to less exposure.

Regarding `Cc1ccc(-c2cc(C(F)(F)F)nn2-c2ccc(S(N)(=O)=O)cc2)cc1` [celecoxib, Celecoxib], the AUC (100 mg) is 3.4 µg·h/mL and the exposure (AUC) (200 mg) amounted to 6.8 µg·h/mL.
